Laboratory results from PubChem BioAssay AID1963963 (Molecular Pharmacology Branch, DTP, NCI, 2024).
pIC50: −log10 of the molar value. One block for each compound: values may come before it.

Test system: 958667-338-R-J2-PDC tumor spheroids viability
Test: Anticancer human tumor 958667-338-R-J2-PDC patient-derived colon adenocarcinoma cell line growth inhibition [PI3K]
Conditions: spheroids with HUVEC and MSC; for pIC50: curve of first compound; for viability, T/C: stronger effect = lower value
Outline: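 Tumor cells grown as multi-cell spheroids with HUVEC endothelial cells and MSC fibroblast-like stroma were treated with targeted agents combined with inavolisib, alpelisib, duvelisib or copanlisib. Doses fell in half-log steps from near clinical Cmax, else from 10 microM. Viability was measured.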
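Note: spheroids exposed to compounds for seven days before readout.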

pIC50 (second compound 0.00316 µM): 6.36
pIC50 (second compound 0.01 µM): 6.45
pIC50 (second compound 0.0316 µM): 6.76
pIC50 (second compound 0.1 µM): 7.06
pIC50 (second compound 0.316 µM): 7.17
pIC50 (second compound 1 µM): > 8.02
Structure (SMILES): Cn1cnc2c(F)c(Nc3ccc(Br)cc3Cl)c(C(=O)NOCCO)cc21 + CC(Nc1ccc2c(c1)OCCn1cc(N3C(=O)OCC3C(F)F)nc1-2)C(N)=O
viability, T/C (second compound 0.00316 µM, first compound 0.00949 µM): 86.6%
viability, T/C (second compound 0.00316 µM, first compound 0.03 µM): 74.4%
viability, T/C (second compound 0.00316 µM, first compound 0.0949 µM): 95.9%
viability, T/C (second compound 0.00316 µM, first compound 0.3 µM): 57.2%
viability, T/C (second compound 0.00316 µM, first compound 0.949 µM): 32%
viability, T/C (second compound 0.00316 µM, first compound 3 µM): 16.8%
viability, T/C (second compound 0.01 µM, first compound 0.00949 µM): 92.2%
viability, T/C (second compound 0.01 µM, first compound 0.03 µM): 101%
viability, T/C (second compound 0.01 µM, first compound 0.0949 µM): 73%
viability, T/C (second compound 0.01 µM, first compound 0.3 µM): 54.4%
viability, T/C (second compound 0.01 µM, first compound 0.949 µM): 30%
viability, T/C (second compound 0.01 µM, first compound 3 µM): 12.9%
viability, T/C (second compound 0.0316 µM, first compound 0.00949 µM): 88.6%
viability, T/C (second compound 0.0316 µM, first compound 0.03 µM): 76.3%
viability, T/C (second compound 0.0316 µM, first compound 0.0949 µM): 60.1%
viability, T/C (second compound 0.0316 µM, first compound 0.3 µM): 42.4%
viability, T/C (second compound 0.0316 µM, first compound 0.949 µM): 20.8%
viability, T/C (second compound 0.0316 µM, first compound 3 µM): 9.82%
viability, T/C (second compound 0.1 µM, first compound 0.00949 µM): 78.7%
viability, T/C (second compound 0.1 µM, first compound 0.03 µM): 57.5%
viability, T/C (second compound 0.1 µM, first compound 0.0949 µM): 57.5%
viability, T/C (second compound 0.1 µM, first compound 0.3 µM): 25.3%
viability, T/C (second compound 0.1 µM, first compound 0.949 µM): 17%
viability, T/C (second compound 0.1 µM, first compound 3 µM): 8.31%
viability, T/C (second compound 0.316 µM, first compound 0.00949 µM): 59.7%
viability, T/C (second compound 0.316 µM, first compound 0.03 µM): 59.5%
viability, T/C (second compound 0.316 µM, first compound 0.0949 µM): 46.9%
viability, T/C (second compound 0.316 µM, first compound 0.3 µM): 23.7%
viability, T/C (second compound 0.316 µM, first compound 0.949 µM): 15.7%
viability, T/C (second compound 0.316 µM, first compound 3 µM): 5.79%
viability, T/C (second compound 1 µM, first compound 0.00949 µM): 44.6%
viability, T/C (second compound 1 µM, first compound 0.03 µM): 43%
viability, T/C (second compound 1 µM, first compound 0.0949 µM): 34.8%
viability, T/C (second compound 1 µM, first compound 0.3 µM): 22.8%
viability, T/C (second compound 1 µM, first compound 0.949 µM): 11.5%
viability, T/C (second compound 1 µM, first compound 3 µM): 3.12%

pIC50 (second compound 0.00316 µM): < 7.00
pIC50 (second compound 0.01 µM): < 7.00
pIC50 (second compound 0.0316 µM): < 7.00
pIC50 (second compound 0.1 µM): < 7.00
pIC50 (second compound 0.316 µM): < 7.00
pIC50 (second compound 1 µM): 7.74
Structure (SMILES): CC(=O)c1c(C)c2cnc(Nc3ccc(N4CCNCC4)cn3)nc2n(C2CCCC2)c1=O + CC(Nc1ccc2c(c1)OCCn1cc(N3C(=O)OCC3C(F)F)nc1-2)C(N)=O
viability, T/C (second compound 0.00316 µM, first compound 0.000316 µM): 96.6%
viability, T/C (second compound 0.00316 µM, first compound 0.001 µM): 107%
viability, T/C (second compound 0.00316 µM, first compound 0.00316 µM): 101%
viability, T/C (second compound 0.00316 µM, first compound 0.01 µM): 104%
viability, T/C (second compound 0.00316 µM, first compound 0.0316 µM): 99.1%
viability, T/C (second compound 0.00316 µM, first compound 0.1 µM): 84.3%
viability, T/C (second compound 0.01 µM, first compound 0.000316 µM): 107%
viability, T/C (second compound 0.01 µM, first compound 0.001 µM): 95.7%
viability, T/C (second compound 0.01 µM, first compound 0.00316 µM): 105%
viability, T/C (second compound 0.01 µM, first compound 0.01 µM): 102%
viability, T/C (second compound 0.01 µM, first compound 0.0316 µM): 107%
viability, T/C (second compound 0.01 µM, first compound 0.1 µM): 83.8%
viability, T/C (second compound 0.0316 µM, first compound 0.000316 µM): 97.3%
viability, T/C (second compound 0.0316 µM, first compound 0.001 µM): 73.8%
viability, T/C (second compound 0.0316 µM, first compound 0.00316 µM): 78.3%
viability, T/C (second compound 0.0316 µM, first compound 0.01 µM): 90.2%
viability, T/C (second compound 0.0316 µM, first compound 0.0316 µM): 98%
viability, T/C (second compound 0.0316 µM, first compound 0.1 µM): 85.3%
viability, T/C (second compound 0.1 µM, first compound 0.000316 µM): 78.2%
viability, T/C (second compound 0.1 µM, first compound 0.001 µM): 87.4%
viability, T/C (second compound 0.1 µM, first compound 0.00316 µM): 89.2%
viability, T/C (second compound 0.1 µM, first compound 0.01 µM): 75.2%
viability, T/C (second compound 0.1 µM, first compound 0.0316 µM): 92.3%
viability, T/C (second compound 0.1 µM, first compound 0.1 µM): 58.2%
viability, T/C (second compound 0.316 µM, first compound 0.000316 µM): 61.9%
viability, T/C (second compound 0.316 µM, first compound 0.001 µM): 73%
viability, T/C (second compound 0.316 µM, first compound 0.00316 µM): 62.8%
viability, T/C (second compound 0.316 µM, first compound 0.01 µM): 65.9%
viability, T/C (second compound 0.316 µM, first compound 0.0316 µM): 56.9%
viability, T/C (second compound 0.316 µM, first compound 0.1 µM): 67.4%
viability, T/C (second compound 1 µM, first compound 0.000316 µM): 64.5%
viability, T/C (second compound 1 µM, first compound 0.001 µM): 62.8%
viability, T/C (second compound 1 µM, first compound 0.00316 µM): 47.5%
viability, T/C (second compound 1 µM, first compound 0.01 µM): 53.2%
viability, T/C (second compound 1 µM, first compound 0.0316 µM): 56.6%
viability, T/C (second compound 1 µM, first compound 0.1 µM): 37%
